Consider 36 compounds from patent US7411083B2, “Substituted acetic acid derivatives” (Wyeth, priority 2003, dated 2008).

In this assay the target is T1, recombinant human plasminogen activator inhibitor-1 (PAI-1) (Homo sapiens, UniProt P05121).
T1 construct: purchased Molecular Innovations, Royal Oak, Mich
T1 sequence (P05121 24-402): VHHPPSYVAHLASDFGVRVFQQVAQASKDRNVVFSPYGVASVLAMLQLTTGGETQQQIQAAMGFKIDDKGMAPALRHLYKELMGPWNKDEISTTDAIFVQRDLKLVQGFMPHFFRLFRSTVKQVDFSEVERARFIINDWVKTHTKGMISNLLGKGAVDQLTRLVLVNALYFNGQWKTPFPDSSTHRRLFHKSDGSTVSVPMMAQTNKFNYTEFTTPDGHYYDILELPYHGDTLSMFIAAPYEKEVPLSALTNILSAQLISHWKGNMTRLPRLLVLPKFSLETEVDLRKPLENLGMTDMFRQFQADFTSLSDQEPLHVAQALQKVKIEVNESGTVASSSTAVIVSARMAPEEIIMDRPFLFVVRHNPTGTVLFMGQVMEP
Nature of the assay: Screening for PAI-1 inhibition (residual tPA activity, Spectrozyme-tPA chromogenic substrate). It counts as biochemical. Particulars: test compound at 100 Um; pH 6.6 buffer, 140 nM PAI-1, 70 nM tPA. The method, boiled down: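 PAI-1 at 140 nM, pH 6.6 buffer, preincubated 1 h at room temperature with compound (1-100 μM final, ≤0.2% DMSO), then 70 nM tPA added for 30 min. Residual tPA activity read by Spectrozyme-tPA absorbance at 405 nm at 0 and 60 min. Inhibition taken as residual tPA activity.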
As to `O=C(O)CO/N=C/c1ccc(OCc2cccc(C(F)(F)F)c2)c(OCc2cccc(C(F)(F)F)c2)c1` [Compound 119, ({[(1E)-(3,4-bis{[3-(trifluoromethyl)benzyl]oxy}phenyl)methylidene]amino}oxy)acetic acid], the inhibition at 100 µM worked out at 93%.
For the compound `Cc1ccc(COc2ccc(/C=N/OCC(=O)O)cc2OCc2ccc(C)cc2)cc1` [Compound 120, {[((1E)-{3,4-bis[(4-methylbenzyl)oxy]phenyl}methylidene)amino]oxy}acetic acid], the inhibition at 100 µM was found to be 78%.
`O=C(O)CO/N=C/c1ccc(OCc2ccc(F)c(F)c2)c(OCc2ccc(F)c(F)c2)c1` [Compound 121, {[((1E)-{3,4-bis[(3,4-difluorobenzyl)oxy]phenyl}methylidene)amino]oxy}acetic acid]: the inhibition at 100 µM amounted to 72%.
In the case of `Cc1ccc(COc2ccc(/C=N/OCC(=O)O)c(OCc3ccc(C)cc3)c2)cc1` [Compound 122, {[((1E)-{2,4-bis[(4-methylbenzyl)oxy]phenyl}methylidene)amino]oxy}acetic acid] it was 87%; in that of `O=C(O)CO/N=C/c1ccc(OCc2ccc(F)cc2)cc1OCc1ccc(F)cc1` [Compound 123, {[((1E)-{2,4-bis[(4-fluorobenzyl)oxy]phenyl}methylidene)amino]oxy}acetic acid], 72%; in that of `O=C(O)CO/N=C/c1ccc(OCc2ccc(C(F)(F)F)cc2)cc1OCc1ccc(C(F)(F)F)cc1` [Compound 124, ({[(1E)-(2,4-bis{[4-(trifluoromethyl)benzyl]oxy}phenyl)methylidene]amino}oxy)acetic acid], 95%.
In the case of `O=C(O)CO/N=C/c1ccc(OCc2ccc(Br)cc2)cc1OCc1ccc(Br)cc1` [Compound 125, {[((1E)-{2,4-bis[(4-bromobenzyl)oxy]phenyl}methylidene)amino]oxy}acetic acid] it was 90%; in that of `CC(C)(C)c1ccc(COc2ccc(/C=N/OCC(=O)O)c(OCc3ccc(C(C)(C)C)cc3)c2)cc1` [Compound 126, {[((1E)-{2,4-bis[(4-tert-butylbenzyl)oxy]phenyl}methylidene)amino]oxy}acetic acid], 77%.
As for `O=C(O)CO/N=C/c1ccc(OCc2cccc(Cl)c2)cc1OCc1cccc(Cl)c1` [Compound 127, {[((1E)-{2,4-bis[(3-chlorobenzyl)oxy]phenyl}methylidene)amino]oxy}acetic acid], the inhibition at 100 µM amounted to 88%.
In the case of `O=C(O)CO/N=C/c1ccc(OCc2cccc(Br)c2)cc1OCc1cccc(Br)c1` [Compound 128, {[((1E)-{2,4-bis[(3-bromobenzyl)oxy]phenyl}methylidene)amino]oxy}acetic acid] it was 91%; in that of `Cc1cccc(COc2ccc(/C=N/OCC(=O)O)c(OCc3cccc(C)c3)c2)c1` [Compound 129, {[((1E)-{2,4-bis[(3-methylbenzyl)oxy]phenyl}methylidene)amino]oxy}acetic acid], 90%; in that of `O=C(O)CO/N=C/c1ccc(OCc2cccc(C(F)(F)F)c2)cc1OCc1cccc(C(F)(F)F)c1` [Compound 130, ({[(1E)-(2,4-bis{[3-(trifluoromethyl)benzyl]oxy}phenyl)methylidene]amino}oxy)acetic acid], 91%.
On to `O=C(O)CO/N=C/c1ccc(OCc2ccc(F)c(F)c2)cc1OCc1ccc(F)c(F)c1` [Compound 131, {[((1E)-{2,4-bis[(3,4-difluorobenzyl)oxy]phenyl}methylidene)amino]oxy}acetic acid], for which the inhibition at 100 µM was determined as 88%.
Then `O=C(O)CO/N=C/c1cccc(OCc2ccc(Br)cc2)c1OCc1ccc(Br)cc1` [Compound 132, {[((1E)-{2,3-bis[(4-bromobenzyl)oxy]phenyl}methylidene)amino]oxy}acetic acid], with 65%; and `O=C(O)CO/N=C/c1cccc(OCc2ccc(F)cc2)c1OCc1ccc(F)cc1` [Compound 133, {[((1E)-{2,3-bis[(4-fluorobenzyl)oxy]phenyl}methylidene)amino]oxy}acetic acid], with 20%; and `O=C(O)CO/N=C/c1cccc(OCc2ccc(C(F)(F)F)cc2)c1OCc1ccc(C(F)(F)F)cc1` [Compound 134, ({[(1E)-(2,3-bis{[4-(trifluoromethyl)benzyl]oxy}phenyl)methylidene]amino}oxy)acetic acid], with 100%.
In the case of `CC(C)(C)c1ccc(COc2cccc(/C=N/OCC(=O)O)c2OCc2ccc(C(C)(C)C)cc2)cc1` [Compound 135, {[((1E)-{2,3-bis[(4-tert-butylbenzyl)oxy]phenyl}methylidene)amino]oxy}acetic acid] it was 58%.
As for `O=C(O)CO/N=C/c1cccc(OCc2cccc(Cl)c2)c1OCc1cccc(Cl)c1` [Compound 136, {[((1E)-{2,3-bis[(3-chlorobenzyl)oxy]phenyl}methylidene)amino]oxy}acetic acid], the inhibition at 100 µM was 80%.
Then `O=C(O)CO/N=C/c1cccc(OCc2cccc(Br)c2)c1OCc1cccc(Br)c1` [Compound 137, {[((1E)-{2,3-bis[(3-bromobenzyl)oxy]phenyl}methylidene)amino]oxy}acetic acid], with 79%.
As to `Cc1cccc(COc2cccc(/C=N/OCC(=O)O)c2OCc2cccc(C)c2)c1` [Compound 138, {[((1E)-{2,3-bis[(3-methylbenzyl)oxy]phenyl}methylidene)amino]oxy}acetic acid], the inhibition at 100 µM is 88%.
In the case of `O=C(O)CO/N=C/c1cccc(OCc2cccc(C(F)(F)F)c2)c1OCc1cccc(C(F)(F)F)c1` [Compound 139, ({[(1E)-(2,3-bis{[3-(trifluoromethyl)benzyl]oxy}phenyl)methylidene]amino}oxy)acetic acid] it was 90%; in that of `Cc1ccc(COc2cccc(/C=N/OCC(=O)O)c2OCc2ccc(C)cc2)cc1` [Compound 140, {[((1E)-{2,3-bis[(4-methylbenzyl)oxy]phenyl}methylidene)amino]oxy}acetic acid], 94%.
As to `O=C(O)CO/N=C/c1cccc(OCc2ccc(F)c(F)c2)c1OCc1ccc(F)c(F)c1` [Compound 141, {[((1E)-{2,3-bis[(3,4-difluorobenzyl)oxy]phenyl}methylidene)amino]oxy}acetic acid], the inhibition at 100 µM came out at 48%.
In the case of `O=C(O)CO/N=C/c1cc(OCc2cccc(Cl)c2)cc(OCc2cccc(Cl)c2)c1` [Compound 142, {[((1E)-{3,5-bis[(3-chlorobenzyl)oxy]phenyl}methylidene)amino]oxy}acetic acid] it was 86%; in that of `O=C(O)CO/N=C/c1cc(OCc2ccc(F)cc2)cc(OCc2ccc(F)cc2)c1` [Compound 143, {[((1E)-{3,5-bis[(4-fluorobenzyl)oxy]phenyl}methylidene)amino]oxy}acetic acid], 95%.
In the case of `O=C(O)CO/N=C/c1cc(OCc2ccc(C(F)(F)F)cc2)cc(OCc2ccc(C(F)(F)F)cc2)c1` [Compound 144, ({[(1E)-(3,5-bis{[4-(trifluoromethyl)benzyl]oxy}phenyl)methylidene]amino}oxy)acetic acid] it was 93%; in that of `O=C(O)CO/N=C/c1cc(OCc2ccc(Br)cc2)cc(OCc2ccc(Br)cc2)c1` [Compound 145, {[((1E)-{3,5-bis[(4-bromobenzyl)oxy]phenyl}methylidene)amino]oxy}acetic acid], 100%; in that of `CC(C)(C)c1ccc(COc2cc(/C=N/OCC(=O)O)cc(OCc3ccc(C(C)(C)C)cc3)c2)cc1` [Compound 146, {[((1E)-{3,5-bis[(4-tert-butylbenzyl)oxy]phenyl}methylidene)amino]oxy}acetic acid], 49%.
On to `O=C(O)CO/N=C/c1cc(OCc2cccc(Br)c2)cc(OCc2cccc(Br)c2)c1` [Compound 147, {[((1E)-{3,5-bis[(3-bromobenzyl)oxy]phenyl}methylidene)amino]oxy}acetic acid], for which the inhibition at 100 µM is 87%.
In the case of `Cc1cccc(COc2cc(/C=N/OCC(=O)O)cc(OCc3cccc(C)c3)c2)c1` [Compound 148, {[((1E)-{3,5-bis[(3-methylbenzyl)oxy]phenyl}methylidene)amino]oxy}acetic acid] it was 88%; in that of `O=C(O)CO/N=C/c1cc(OCc2cccc(C(F)(F)F)c2)cc(OCc2cccc(C(F)(F)F)c2)c1` [Compound 149, ({[(1E)-(3,5-bis{[3-(trifluoromethyl)benzyl]oxy}phenyl)methylidene]amino}oxy)acetic acid], 91%.
Take `Cc1ccc(COc2cc(/C=N/OCC(=O)O)cc(OCc3ccc(C)cc3)c2)cc1` [Compound 150, {[((1E)-{3,5-bis[(4-methylbenzyl)oxy]phenyl}methylidene)amino]oxy}acetic acid]: the inhibition at 100 µM came to 90%.
As for `O=C(O)CO/N=C/c1cc(OCc2ccc(F)c(F)c2)cc(OCc2ccc(F)c(F)c2)c1` [Compound 151, {[((1E)-{3,5-bis[(3,4-difluorobenzyl)oxy]phenyl}methylidene)amino]oxy}acetic acid], the inhibition at 100 µM worked out at 88%.
In the case of `O=C(O)CO/N=C/c1cc(OCc2cccc(C(F)(F)F)c2)ccc1OCc1cccc(C(F)(F)F)c1` [Compound 152, ({[(1E)-(2,5-bis{[3-(trifluoromethyl)benzyl]oxy}phenyl)methylidene]amino}oxy)acetic acid] it was 100%; in that of `O=C(O)CO/N=C/c1cc(OCc2ccc(F)cc2)ccc1OCc1ccc(F)cc1` [Compound 153, {[((1E)-{2,5-bis[(4-fluorobenzyl)oxy]phenyl}methylidene)amino]oxy}acetic acid], 96%.
Turning to `O=C(O)CO/N=C/c1cc(OCc2ccc(C(F)(F)F)cc2)ccc1OCc1ccc(C(F)(F)F)cc1` [Compound 154, ({[(1E)-(2,5-bis{[4-(trifluoromethyl)benzyl]oxy}phenyl)methylidene]amino}oxy)acetic acid], the inhibition at 100 µM was found to be 91%.
